Legend:
Type in all cases: cell-based
SKBR3 (Her2+) cells = assay: In vitro cytotoxicity assay, SKBR3 cells (CCK8 viability); conditions: naked payload, SKBr-3 cells, 3 days; for SKBr-3 % kill: % kill reported for the highest dose; for IC50: CCK8
Procedure: (§1) In this Example, the ability of various antibody-drug conjugates and naked payloads to kill antigen-expressing tumor cells in vitro was assessed.
(§2) SKBR3 (Her2+) cells were seeded in 96 well plates at 8000 cells per well in complete growth media and grown overnight. For cell viability curves, serially diluted conjugates or naked payloads were added to the cells at final concentrations ranging from 100 nM to 5 pM and incubated for 3 days. To measure viability, cells were incubated with CCK8 (Dojindo) for the final 2 hours and the absorbance at 450 nm (OD450) was determined on a Victor (Perkin Elmer). Background OD450 levels determined from digitonin (40 nM) treated cells were subtracted from all wells and viability is expressed as a percentage of the untreated controls. IC50 values were determined from a four-parameter logistic equation over a 10-point response curve (GraphPad Prism). […] All curves and IC50 values are corrected for payload equivalents. The plot of % Cell Viability vs. Log 10 [M]
(§3) All IC50s are expressed in nM concentration and % kill is reported for the highest dose. All curves and IC50 values are corrected for payload equivalents. The plot of % Cell Viability vs. Log 10 [M]

C4-2 (STEAP2+) cells = assay: In vitro cytotoxicity assay, C4-2 cells (CellTiter-Glo viability); conditions: naked payload, 5 days; for C4-2 % kill: % kill reported for the highest dose; for IC50: CellTiter-Glo
Procedure: as §1
C4-2 (STEAP2+) cells were seeded in 96 well plates at 4000 cells per well in complete growth media and grown overnight. For cell viability curves, serially diluted conjugates or naked payloads were added to the cells at final concentrations ranging from 100 nM to 5 pM and incubated for 5 days. To measure viability, cells were incubated with CellTiter-Glo reagents for 5 minutes and luminescence was determined on a Victor plate reader (PerkinElmer). IC50 values were determined from a four-parameter logistic equation over a 10-point response curve (GraphPad Prism).
as §3

Ovcar3 (Muc16+) cells = assay: In vitro cytotoxicity assay, Ovcar3 cells (CCK8 viability); conditions: naked payload, 3 days; for Ovcar3 % kill: % kill reported for the highest dose; for IC50: CCK8
Procedure: as §1
as §2, with “Ovcar3 (Muc16+)” for “SKBR3 (Her2+)”, “3000” for “8000”
as §3

| Structure (SMILES) | SKBr-3 % kill (SKBR3 (Her2+) cells) | IC50 (SKBR3 (Her2+) cells) [nM] | C4-2 % kill (C4-2 (STEAP2+) cells) | IC50 (C4-2 (STEAP2+) cells) [nM] | Ovcar3 % kill (Ovcar3 (Muc16+) cells) | IC50 (Ovcar3 (Muc16+) cells) [nM] |
| --- | --- | --- | --- | --- | --- | --- |
| COc1cc2cc(c1Cl)N(C)C(=O)CC(OC(=O)Nc1ccc(N)c(Cl)c1)C1(C)OC1C(C)C1CC(O)(NC(=O)O1)C(OC)C=CC=C(C)C2 (stereo not drawn) [Compound 30a, Maytan-3-O-carbamoyl-N-(3-chloro-4-amino)benzene] | **** (**** indicates % kill greater than, or equal to, 95 and less than 99) | 0.1 to 1 | ***** (***** indicates % kill greater than, or equal to, 99) | 1 to 10 | *** (*** indicates % kill greater than, or equal to, 90 and less than 95) | 0.1 to 1 |
| COc1cc2cc(c1Cl)N(C)C(=O)C[C@H](OC(=O)Nc1ccc(N)cc1Br)[C@]1(C)O[C@H]1[C@H](C)[C@@H]1C[C@@](O)(NC(=O)O1)[C@H](OC)/C=C/C=C(\C)C2 [Compound 30m, Maytan-3-O-carbamoyl-N-(2-bromo-4-amino)benzene] | ***** (***** indicates % kill greater than, or equal to, 99) | 0.01 to 0.1 | ***** (***** indicates % kill greater than, or equal to, 99) | 0.01 to 0.1 | ** (** indicates % kill greater than, or equal to, 85 and less than 90) | 0.001 to 0.01 |
| COc1cc2cc(c1Cl)N(C)C(=O)CC(OC(=O)Nc1ccc(N)cc1Cl)C1(C)OC1C(C)C1CC(O)(NC(=O)O1)C(OC)C=CC=C(C)C2 (stereo not drawn) [Compound 17, Maytan-3-O-carbamoyl-N-(2-chloro-4-amino)benzene] | ***** (***** indicates % kill greater than, or equal to, 99) | 0.01 to 0.1 | **** (**** indicates % kill greater than, or equal to, 95 and less than 99) | 0.1 to 1 | *** (*** indicates % kill greater than, or equal to, 90 and less than 95) | 0.001 to 0.01 |

Reference: US12691182B2, “Maytansinoid derivatives, conjugates thereof, and methods of use” (priority 2016, dated 2026)
